Measurements reported in patent US20120122860A1, “SOLID FORMS OF SULFONAMIDES AND AMINO ACIDS” (Plexxikon, Inc., priority 2009, published 2012).

Columns and labels:
B-Raf = B-Raf (Homo sapiens, UniProt P15056); assay: Kinase activity assay, B-Raf; assay type: biochemical; details: read-out: activity toward kinase B-Raf, IC50
B-Raf V600E = B-Raf V600E (Homo sapiens, UniProt P15056, V600E); assay: Kinase activity assay, B-Raf V600E; assay type: biochemical; details: read-out: activity toward kinase B-Raf V600E, IC50
A-Raf = molecular target: T1, A-Raf (Homo sapiens, UniProt P10398); assay: Kinase activity assay, A-Raf
T1 sequence (P10398 1-606): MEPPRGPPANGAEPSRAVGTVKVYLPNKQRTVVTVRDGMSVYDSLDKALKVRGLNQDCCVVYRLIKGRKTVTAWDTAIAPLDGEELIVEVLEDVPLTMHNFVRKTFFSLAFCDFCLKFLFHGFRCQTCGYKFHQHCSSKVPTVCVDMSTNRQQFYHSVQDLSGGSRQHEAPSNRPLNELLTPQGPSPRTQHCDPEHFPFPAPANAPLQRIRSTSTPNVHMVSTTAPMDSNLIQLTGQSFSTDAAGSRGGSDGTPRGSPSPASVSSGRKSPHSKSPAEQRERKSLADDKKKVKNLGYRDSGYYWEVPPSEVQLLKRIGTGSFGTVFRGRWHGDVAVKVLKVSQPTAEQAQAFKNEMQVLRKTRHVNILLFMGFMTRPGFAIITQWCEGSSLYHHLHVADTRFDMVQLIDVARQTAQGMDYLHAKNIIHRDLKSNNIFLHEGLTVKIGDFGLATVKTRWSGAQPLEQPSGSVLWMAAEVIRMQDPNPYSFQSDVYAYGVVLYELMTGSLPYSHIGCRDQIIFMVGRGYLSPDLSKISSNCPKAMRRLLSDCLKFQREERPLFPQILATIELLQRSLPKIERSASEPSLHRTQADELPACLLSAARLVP

C-Raf = C-Raf (Homo sapiens, UniProt P04049); assay: Kinase activity assay, C-Raf
Fms = Fms (Homo sapiens, UniProt P07333); assay: Kinase activity assay, Fms
Kdr = Kdr (Homo sapiens, UniProt P35968); assay: Kinase activity assay, Kdr
Kit = Kit (Homo sapiens, UniProt P10721); assay: Kinase activity assay, Kit
Src = Src (Homo sapiens, UniProt P12931); assay: Kinase activity assay, Src
MAP4K4 = MAP4K4 (Homo sapiens, UniProt O95819); assay: Kinase activity assay, MAP4K4

Sequence of B-Raf (P15056 whole entry): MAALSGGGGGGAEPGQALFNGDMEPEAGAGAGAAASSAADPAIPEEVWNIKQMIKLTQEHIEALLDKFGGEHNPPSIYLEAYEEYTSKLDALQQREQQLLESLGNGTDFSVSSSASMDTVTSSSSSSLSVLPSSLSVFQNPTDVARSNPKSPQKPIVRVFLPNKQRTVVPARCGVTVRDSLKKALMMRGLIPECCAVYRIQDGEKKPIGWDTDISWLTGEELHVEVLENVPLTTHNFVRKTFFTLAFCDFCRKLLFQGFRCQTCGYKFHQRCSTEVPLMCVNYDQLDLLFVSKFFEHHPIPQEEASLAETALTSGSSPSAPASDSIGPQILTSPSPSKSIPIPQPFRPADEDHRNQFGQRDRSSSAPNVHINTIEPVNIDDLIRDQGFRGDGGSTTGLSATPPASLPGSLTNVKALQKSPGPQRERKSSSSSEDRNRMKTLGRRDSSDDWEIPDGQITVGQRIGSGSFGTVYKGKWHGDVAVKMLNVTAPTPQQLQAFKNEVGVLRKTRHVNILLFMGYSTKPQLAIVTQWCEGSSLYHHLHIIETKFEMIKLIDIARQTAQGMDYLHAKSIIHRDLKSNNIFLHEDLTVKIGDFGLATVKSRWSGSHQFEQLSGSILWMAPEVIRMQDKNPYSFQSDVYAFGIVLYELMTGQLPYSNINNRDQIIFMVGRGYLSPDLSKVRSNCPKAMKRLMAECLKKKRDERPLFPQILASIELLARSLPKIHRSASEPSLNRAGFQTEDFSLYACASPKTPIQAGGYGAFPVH
Sequence of Src (P12931 whole entry): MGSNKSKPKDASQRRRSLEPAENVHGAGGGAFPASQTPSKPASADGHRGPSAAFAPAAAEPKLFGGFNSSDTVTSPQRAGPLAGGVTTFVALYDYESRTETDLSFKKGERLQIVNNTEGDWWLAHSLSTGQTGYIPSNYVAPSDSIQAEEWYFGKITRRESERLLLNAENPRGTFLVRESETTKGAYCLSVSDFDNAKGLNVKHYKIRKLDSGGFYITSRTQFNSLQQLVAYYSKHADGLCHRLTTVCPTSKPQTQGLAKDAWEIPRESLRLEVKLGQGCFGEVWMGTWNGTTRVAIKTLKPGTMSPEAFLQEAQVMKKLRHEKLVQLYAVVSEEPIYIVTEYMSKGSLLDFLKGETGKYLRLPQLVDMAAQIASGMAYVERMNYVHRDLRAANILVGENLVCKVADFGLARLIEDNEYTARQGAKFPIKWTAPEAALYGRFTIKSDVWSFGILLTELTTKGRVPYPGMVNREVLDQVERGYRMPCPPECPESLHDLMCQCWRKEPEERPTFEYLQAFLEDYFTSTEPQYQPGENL
Sequence of Fms (P07333 20-972): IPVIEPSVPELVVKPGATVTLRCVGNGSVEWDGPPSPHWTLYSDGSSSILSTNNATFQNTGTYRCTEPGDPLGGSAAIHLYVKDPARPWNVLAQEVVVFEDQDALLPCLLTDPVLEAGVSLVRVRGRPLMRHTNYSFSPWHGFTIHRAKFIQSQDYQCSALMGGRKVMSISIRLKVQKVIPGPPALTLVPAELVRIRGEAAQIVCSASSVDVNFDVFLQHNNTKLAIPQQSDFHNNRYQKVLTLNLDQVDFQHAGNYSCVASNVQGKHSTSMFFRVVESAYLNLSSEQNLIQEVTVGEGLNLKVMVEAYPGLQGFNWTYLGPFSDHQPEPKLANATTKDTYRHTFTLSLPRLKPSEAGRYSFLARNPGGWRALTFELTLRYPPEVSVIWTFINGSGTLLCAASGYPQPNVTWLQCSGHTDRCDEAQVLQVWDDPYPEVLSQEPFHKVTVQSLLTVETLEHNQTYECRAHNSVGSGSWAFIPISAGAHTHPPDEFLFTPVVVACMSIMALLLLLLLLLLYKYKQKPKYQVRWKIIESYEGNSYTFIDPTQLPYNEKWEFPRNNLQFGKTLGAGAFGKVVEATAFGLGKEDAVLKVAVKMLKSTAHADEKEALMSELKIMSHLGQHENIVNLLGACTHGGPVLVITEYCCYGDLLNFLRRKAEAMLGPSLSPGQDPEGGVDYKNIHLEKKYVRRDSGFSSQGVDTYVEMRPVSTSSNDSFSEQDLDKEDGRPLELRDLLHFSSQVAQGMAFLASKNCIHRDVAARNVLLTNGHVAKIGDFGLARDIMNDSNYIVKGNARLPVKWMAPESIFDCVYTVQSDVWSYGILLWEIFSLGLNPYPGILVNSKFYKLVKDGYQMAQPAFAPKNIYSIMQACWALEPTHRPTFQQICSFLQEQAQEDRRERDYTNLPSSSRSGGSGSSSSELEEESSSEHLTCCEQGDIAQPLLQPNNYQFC
Sequence of B-Raf V600E (P15056 whole entry V600E): as the sequence (P15056 whole entry) above, with V600E counted along it
Sequence of Kit (P10721 26-976): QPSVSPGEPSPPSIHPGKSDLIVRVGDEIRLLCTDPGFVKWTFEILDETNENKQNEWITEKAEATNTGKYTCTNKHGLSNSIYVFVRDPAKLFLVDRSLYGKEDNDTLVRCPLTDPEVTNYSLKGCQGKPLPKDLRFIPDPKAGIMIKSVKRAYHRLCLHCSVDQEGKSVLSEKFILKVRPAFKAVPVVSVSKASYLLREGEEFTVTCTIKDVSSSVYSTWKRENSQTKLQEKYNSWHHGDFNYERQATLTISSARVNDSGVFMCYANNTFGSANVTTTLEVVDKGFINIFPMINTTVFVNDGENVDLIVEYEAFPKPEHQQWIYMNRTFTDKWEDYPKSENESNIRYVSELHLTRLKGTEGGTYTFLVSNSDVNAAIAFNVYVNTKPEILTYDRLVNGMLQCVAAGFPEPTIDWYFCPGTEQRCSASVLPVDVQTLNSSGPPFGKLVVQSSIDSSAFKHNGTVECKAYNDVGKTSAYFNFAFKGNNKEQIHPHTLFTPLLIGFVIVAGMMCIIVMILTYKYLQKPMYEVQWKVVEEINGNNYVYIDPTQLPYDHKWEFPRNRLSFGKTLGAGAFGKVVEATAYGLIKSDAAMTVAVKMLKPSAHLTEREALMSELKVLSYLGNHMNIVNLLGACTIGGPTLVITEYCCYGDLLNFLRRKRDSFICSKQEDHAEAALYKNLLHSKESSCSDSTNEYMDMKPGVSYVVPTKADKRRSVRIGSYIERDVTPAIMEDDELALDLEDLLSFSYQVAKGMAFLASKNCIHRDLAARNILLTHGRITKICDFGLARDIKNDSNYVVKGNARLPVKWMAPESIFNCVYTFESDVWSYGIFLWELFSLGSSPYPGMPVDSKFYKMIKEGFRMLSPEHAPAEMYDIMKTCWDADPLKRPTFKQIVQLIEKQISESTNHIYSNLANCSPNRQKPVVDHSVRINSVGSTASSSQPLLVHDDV
Sequence of C-Raf (P04049 whole entry): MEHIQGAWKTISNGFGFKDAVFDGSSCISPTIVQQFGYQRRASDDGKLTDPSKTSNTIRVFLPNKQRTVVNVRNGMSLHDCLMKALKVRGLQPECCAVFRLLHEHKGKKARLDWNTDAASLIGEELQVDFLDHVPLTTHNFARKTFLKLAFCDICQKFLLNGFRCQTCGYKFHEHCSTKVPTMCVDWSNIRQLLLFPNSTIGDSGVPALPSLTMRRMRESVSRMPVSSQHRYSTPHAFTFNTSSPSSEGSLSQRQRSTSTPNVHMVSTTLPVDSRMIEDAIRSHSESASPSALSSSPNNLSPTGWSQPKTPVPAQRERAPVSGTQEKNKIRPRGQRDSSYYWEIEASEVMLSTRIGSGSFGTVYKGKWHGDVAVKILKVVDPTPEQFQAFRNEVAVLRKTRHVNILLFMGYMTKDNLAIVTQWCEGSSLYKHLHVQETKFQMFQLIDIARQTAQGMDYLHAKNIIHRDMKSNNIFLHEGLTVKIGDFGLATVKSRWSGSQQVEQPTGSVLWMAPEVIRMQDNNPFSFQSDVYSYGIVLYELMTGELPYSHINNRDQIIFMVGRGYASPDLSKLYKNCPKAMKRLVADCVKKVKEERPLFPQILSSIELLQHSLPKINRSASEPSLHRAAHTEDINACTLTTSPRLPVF

IC50 (B-Raf)	IC50 (B-Raf V600E)	IC50 (A-Raf)	IC50 (C-Raf)	IC50 (Fms)	IC50 (Kdr)	IC50 (Kit)	IC50 (Src)	IC50 (MAP4K4)	SMILES
≤ 10 µM	≤ 10 µM	≤ 10 µM	≤ 10 µM						N#Cc1ccnc2[nH]cc(C(=O)c3c(F)ccc(NS(=O)(=O)c4cccnc4)c3F)c12 [P-2077, Pyridine-3-sulfonic acid [3-(4-cyano-1H-pyrrolo[2,3-b]pyridine-3-carbonyl)-2,4-difluoro-phenyl]-amide]
≤ 10 µM		≤ 10 µM	≤ 10 µM						O=C(c1cc(NS(=O)(=O)c2ccc(C(F)(F)F)cc2)ccc1F)c1c[nH]c2ncccc12 [P-2119, N-[4-Fluoro-3-(1H-pyrrolo[2,3-b]pyridine-3-carbonyl)-phenyl]-4-trifluoromethyl-benzenesulfonamide]
≤ 10 µM				≤ 10 µM	≤ 10 µM	≤ 10 µM	≤ 10 µM	≤ 10 µM	O=C(O)CCc1cccc(-c2cnc3[nH]cc(C(=O)c4cccc(NS(=O)(=O)c5cccnc5)c4)c3c2)c1 [P-2148, 3-(3-{3-[3-(Pyridine-3-sulfonylamino)-benzoyl]-1H-pyrrolo[2,3-b]pyridin-5-yl}-phenyl)-propionic acid]
≤ 10 µM	≤ 10 µM	≤ 10 µM	≤ 10 µM		≤ 10 µM				CCCS(=O)(=O)Nc1ccc(F)c(C(=O)c2c[nH]c3nccc(Cl)c23)c1F [P-2208, Propane-1-sulfonic acid [3-(4-chloro-1H-pyrrolo[2,3-b]pyridine-3-carbonyl)-2,4-difluoro-phenyl]-amide]
≤ 10 µM	≤ 10 µM		≤ 10 µM	≤ 10 µM	≤ 10 µM	≤ 10 µM	≤ 10 µM	≤ 10 µM	CCCS(=O)(=O)Nc1ccc(F)c(C(=O)c2c[nH]c3ncc(-c4ccc(CCCOC)nc4)cc23)c1F [P-2226, Propane-1-sulfonic acid (2,4-difluoro-3-{5-[6-(3-methoxy-propyl)-pyridin-3-yl]-1H-pyrrolo[2,3-b]pyridine-3-carbonyl}-phenyl)-amide]
≤ 10 µM	≤ 10 µM		≤ 10 µM	≤ 10 µM	≤ 10 µM	≤ 10 µM	≤ 10 µM	≤ 10 µM	CCCS(=O)(=O)Nc1ccc(F)c(C(=O)c2c[nH]c3ncc(-c4cccc(S(C)(=O)=O)c4)cc23)c1F [P-2228, Propane-1-sulfonic acid {2,4-difluoro-3-[5-(3-methanesulfonyl-phenyl)-1H-pyrrolo[2,3-b]pyridine-3-carbonyl]-phenyl}-amide]
≤ 10 µM	≤ 10 µM	≤ 10 µM	≤ 10 µM		≤ 10 µM				CCCS(=O)(=O)Nc1ccc(F)c(C(=O)c2c[nH]c3ncc(CCC(=O)NOC)cc23)c1F [P-2243, 3-{3-[2,6-Difluoro-3-(propane-1-sulfonylamino)-benzoyl]-1H-pyrrolo[2,3-b]pyridin-5-yl}-N-methoxy-propionamide]
≤ 10 µM	≤ 10 µM	≤ 10 µM	≤ 10 µM						CCCS(=O)(=O)Nc1ccc(F)c(C(=O)c2c[nH]c3ncc(CN(CC)CC)cc23)c1F [P-2258, Propane-1-sulfonic acid [3-(5-diethylaminomethyl-1H-pyrrolo[2,3-b]pyridine-3-carbonyl)-2,4-difluoro-phenyl]-amide]
≤ 10 µM	≤ 10 µM	≤ 10 µM	≤ 10 µM						CCCS(=O)(=O)Nc1ccc(F)c(C(=O)c2c[nH]c3ncc(CN4CCCC4)cc23)c1F [P-2259, Propane-1-sulfonic acid [2,4-difluoro-3-(5-pyrrolidin-1-ylmethyl-1H-pyrrolo[2,3-b]pyridine-3-carbonyl)-phenyl]-amide]
≤ 10 µM	≤ 10 µM	≤ 10 µM	≤ 10 µM						CCS(=O)(=O)Nc1ccc(F)c(C(=O)c2c[nH]c3nccc(C#N)c23)c1F [P-2283, Ethanesulfonic acid [3-(4-cyano-1H-pyrrolo[2,3-b]pyridine-3-carbonyl)-2,4-difluoro-phenyl]-amide]
≤ 10 µM	≤ 10 µM	≤ 10 µM	≤ 10 µM						CC(C)S(=O)(=O)Nc1ccc(F)c(C(=O)c2c[nH]c3nccc(C#N)c23)c1F [P-2285, Propane-2-sulfonic acid [3-(4-cyano-1H-pyrrolo[2,3-b]pyridine-3-carbonyl)-2,4-difluoro-phenyl]-amide]
≤ 10 µM	≤ 10 µM		≤ 10 µM	≤ 10 µM	≤ 10 µM	≤ 10 µM	≤ 10 µM	≤ 10 µM	O=C(c1c(F)ccc(NS(=O)(=O)CCC(F)(F)F)c1F)c1c[nH]c2ncc(Cl)cc12 [P-2324, 3,3,3-Trifluoro-propane-1-sulfonic acid [3-(5-chloro-1H-pyrrolo[2,3-b]pyridine-3-carbonyl)-2,4-difluoro-phenyl]-amide]
≤ 10 µM	≤ 10 µM		≤ 10 µM	≤ 10 µM	≤ 10 µM	≤ 10 µM	≤ 10 µM	≤ 10 µM	N#Cc1cnc2[nH]cc(C(=O)c3c(F)ccc(NS(=O)(=O)CCC(F)(F)F)c3F)c2c1 [P-2331, 3,3,3-Trifluoro-propane-1-sulfonic acid [3-(5-cyano-1H-pyrrolo[2,3-b]pyridine-3-carbonyl)-2,4-difluoro-phenyl]-amide]
	≤ 10 µM	≤ 10 µM			≤ 10 µM				CCN(CC)S(=O)(=O)Nc1ccc(F)c(C(=O)c2c[nH]c3ncc(C#N)cc23)c1F [P-2385, N,N-diethylamino-sulfonic acid [3-(5-cyano-1H-pyrrolo[2,3-b]pyridine-3-carbonyl)-2,4-difluoro-phenyl]-amide]
	≤ 10 µM	≤ 10 µM			≤ 10 µM				CCN(CC)S(=O)(=O)Nc1ccc(F)c(C(=O)c2c[nH]c3ncc(C)cc23)c1F [P-2386, N,N-diethylamino-sulfonic acid [2,4-difluoro-3-(5-methyl-1H-pyrrolo[2,3-b]pyridine-3-carbonyl)-phenyl]-amide]
	≤ 10 µM	≤ 10 µM			≤ 10 µM				CCN(CC)S(=O)(=O)Nc1ccc(F)c(C(=O)c2c[nH]c3nccc(Cl)c23)c1F [P-2387, N,N-diethylamino-sulfonic acid [3-(4-chloro-1H-pyrrolo[2,3-b]pyridine-3-carbonyl)-2,4-difluoro-phenyl]-amide]
	≤ 10 µM	≤ 10 µM							CCN(CC)S(=O)(=O)Nc1ccc(F)c(C(=O)c2c[nH]c3nccc(C#N)c23)c1F [P-2388, N,N-diethylamino-sulfonic acid [3-(4-cyano-1H-pyrrolo[2,3-b]pyridine-3-carbonyl)-2,4-difluoro-phenyl]-amide]
≤ 10 µM	≤ 10 µM	≤ 10 µM	≤ 10 µM						N#Cc1ccnc2[nH]cc(C(=O)c3c(F)ccc(NS(=O)(=O)N4CCOCC4)c3F)c12 [P-2395, Morpholine-4-sulfonic acid [3-(4-cyano-1H-pyrrolo[2,3-b]pyridine-3-carbonyl)-2,4-difluoro-phenyl]-amide]
≤ 10 µM	≤ 10 µM			≤ 10 µM	≤ 10 µM	≤ 10 µM	≤ 10 µM	≤ 10 µM	O=C(O)CCc1cccc(-c2cnc3[nH]cc(C(=O)c4cccc(NS(=O)(=O)C5CCCCC5)c4)c3c2)c1 [P-2465, 3-{3-[3-(3-Cyclohexanesulfonylamino-benzoyl)-1H-pyrrolo[2,3-b]pyridin-5-yl]-phenyl}-propionic acid]
